Assay results: publication PMC3021320 (FEBS letters, 2010)

Biological target: T1, Janus kinase 3 (JAK3) (Homo sapiens, UniProt P52333)
T1 sequence (P52333 1-1124): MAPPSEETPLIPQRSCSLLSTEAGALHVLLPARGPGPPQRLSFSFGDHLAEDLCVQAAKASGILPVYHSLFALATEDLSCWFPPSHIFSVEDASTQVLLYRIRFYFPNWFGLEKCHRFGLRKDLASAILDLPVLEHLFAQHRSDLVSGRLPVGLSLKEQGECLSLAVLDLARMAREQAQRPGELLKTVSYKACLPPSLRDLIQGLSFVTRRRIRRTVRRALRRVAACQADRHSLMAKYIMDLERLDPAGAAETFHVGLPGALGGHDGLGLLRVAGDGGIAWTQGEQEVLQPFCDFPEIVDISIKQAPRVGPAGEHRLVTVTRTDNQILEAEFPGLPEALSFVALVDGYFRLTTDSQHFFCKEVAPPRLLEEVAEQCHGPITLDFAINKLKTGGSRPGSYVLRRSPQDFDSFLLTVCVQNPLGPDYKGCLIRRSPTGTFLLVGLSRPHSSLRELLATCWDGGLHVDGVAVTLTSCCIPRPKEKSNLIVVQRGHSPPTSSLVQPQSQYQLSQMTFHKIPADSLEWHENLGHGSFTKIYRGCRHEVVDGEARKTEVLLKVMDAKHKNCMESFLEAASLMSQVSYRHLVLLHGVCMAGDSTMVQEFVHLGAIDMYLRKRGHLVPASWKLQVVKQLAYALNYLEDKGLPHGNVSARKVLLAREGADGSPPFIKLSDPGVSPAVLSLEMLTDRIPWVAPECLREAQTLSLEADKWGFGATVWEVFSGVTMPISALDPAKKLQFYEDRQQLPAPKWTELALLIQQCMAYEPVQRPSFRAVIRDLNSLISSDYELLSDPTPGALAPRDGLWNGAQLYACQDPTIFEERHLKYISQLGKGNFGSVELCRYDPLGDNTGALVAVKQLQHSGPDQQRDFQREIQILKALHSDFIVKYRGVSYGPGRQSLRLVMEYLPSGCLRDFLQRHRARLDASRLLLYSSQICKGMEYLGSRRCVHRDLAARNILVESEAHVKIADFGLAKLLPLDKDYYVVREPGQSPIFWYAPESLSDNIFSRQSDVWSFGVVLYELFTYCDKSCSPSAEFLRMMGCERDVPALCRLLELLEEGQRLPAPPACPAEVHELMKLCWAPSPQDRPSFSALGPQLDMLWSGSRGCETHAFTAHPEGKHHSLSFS
Assay: kinase assay
Type: cell-based

O=c1cc(-c2ccc(O)cc2)oc2cc(O)cc(O)c12 [apigenin]
IC50: 1.3 nM
